Laboratory results: patent publication US11376580B2, “Methods and systems comprising modified pipettes for transferring and preserving biomaterial” (UNIVERSITY OF PITTSBURGH—OF THE COMMONWEALTH SYSTEM OF …, priority 2017, dated 2022)
Read-outs that look alike come from different tables or passages of the source.

Legend:
in vitro [1] = settings: human
in vitro [2] = settings: human; remark: listed apart in the source
in vitro [3] = settings: human; remark: listed apart in the source
HEK293 cells [4] = test system: HEK293 cells
HEK293 cells [5] = test system: HEK293 cells; remark: listed apart in the source
[6] = test system: primary human hepatocytes
[7] = test system: Human primary hepatocytes; type: in vitro ADME
[8] = test system: primary human hepatocytes; settings: for Metabolite Generation (marker metabolite of the probe): 10 uM
Method: Probe metabolism was tested as a fresh hepatocyte suspension culture, as a fresh agarose gelled BioActivator and after thawing a cryopreserved BioActivator. In all three testing conditions 50,000 viable hepatocytes were tested as following: (a) as a suspension in 500 μl of probe media, or, (b) in 50 μl of gelled agarose submerged in 450 μl of probe media. Cryopreserved BioActivators were thawed for testing after 48 hours at −80° C. Probe media was collected from the 3 test conditions at 30 minutes and 18 hours. Ice-cold acetonitrile containing 10 μM chlorzoxazone (internal extraction standard) was added at a 2:1 ratio to the collected media. The extraction mixture was analyzed by LC MS/MS.

[9] = HEK293 Cytotoxicity LC50, HEK293 + BioActivator
[10] = HEK293 Cytotoxicity LC50, HEK 293 + cell free agarose beads
[11] = HEK293 Cytotoxicity LC50, HEK293 + BioActivator Pre-Conditioned Media
[12] = HEK293 Cytotoxicity LC50, HEK 293 + Cell Free Agarose Bead Pre-Conditioned Media
[13] = HEK293 Cytotoxicity LC50, HEK293 + BioActivator, co-cultured 24 hours with BioActivators, Mean ± SD (N = 3), max 250 μM
[14] = HEK293 Cytotoxicity LC50, HEK 293 + cell free agarose beads, co-cultured 24 hours with cell free agarose beads, Mean ± SD (N = 3), max 250 μM
[15] = HEK293 Cytotoxicity LC50, HEK293 + BioActivator Pre-Conditioned Media, compounds pre-conditioned 24 h in BioActivator, then 24 h on HEK293, Mean ± SD (N = 3)

C=CC(N)=O [Acrylamide] showed a CC50 (in vitro [1]) of over 250 µM, a CC50 (in vitro [2]; [9]) of 167 ± 7.9 µM and a CC50 (in vitro [2]; [10]) of over 250 µM. For the same compound, the CC50 (in vitro [3]; [11]) was over 250 µM and the CC50 (in vitro [3]; [12]) was over 250 µM.

With COc1cccc2c1C(=O)c1c(O)c3c(c(O)c1C2=O)C[C@@](O)(C(=O)CO)C[C@@H]3O[C@H]1C[C@H](N)[C@H](O)[C@H](C)O1 [Doxorubicin] the “HEK293 cytotoxicity of compounds pre-conditioned in the BioActivator (in words)” value (HEK293 cells [4]) was “produce cytotoxicity”, the “HEK293 cytotoxicity co-cultured with BioActivator (in words)” value (HEK293 cells [5]; human) was “measurable LC50 responses” and the “HEK293 cytotoxicity co-cultured with cell free agarose bead (in words)” value (HEK293 cells [5]; human) was “measurable LC50”. For the same compound, the CC50 (in vitro [1]) was 104 ± 4.6 µM, the CC50 (in vitro [2]; [13]) was 59 ± 5.1 µM and the CC50 (in vitro [2]; [14]) was 108 ± 9.3 µM. For the same compound, the “Cytotoxicity in BioActivator hepatocytes at end of co-culture (in words)” value [6] was “cytotoxicity was evident”, the “Cytotoxicity in BioActivator hepatocytes at end of co-culture (in words)” value ([6]; human) was “LC50 responses” and the CC50 (in vitro [3]; [15]) was 71 ± 2.7 µM.

With Nc1cc2c3ccccc3ccc2c2ccccc12 [6-Aminochrysene] the “HEK293 cytotoxicity of compounds pre-conditioned in the BioActivator (in words)” value (HEK293 cells [4]; compared to compounds pre-conditioned in cell free agarose beads) was “produce cytotoxicity”, the CC50 (in vitro [1]) was over 250 µM and the CC50 (in vitro [2]; [13]) was 84 ± 2 µM. For the same compound, the CC50 (in vitro [2]; [14]) was over 250 µM and the CC50 (in vitro [3]; [15]) was 241 ± 9.8 µM.

With Aflatoxin B1 the “HEK293 cytotoxicity co-cultured with BioActivator (in words)” value (HEK293 cells [5]) was “No HEK293 cytotoxicity” and the “HEK293 cytotoxicity co-cultured with cell free agarose bead (in words)” value (HEK293 cells [5]) was “No HEK293 cytotoxicity”.

With O=c1ccc2ccccc2o1 [coumarin] the “Metabolite generation in slotted pipette tip compared with control hepatocyte suspension cultures (in words)” value [7] was “compare favorably”.

With O=P1(N(CCCl)CCCl)NCCCO1 (stereo not shown) [Cyclophosphamide] the “HEK293 cytotoxicity co-cultured with BioActivator (in words)” value (HEK293 cells [5]; human) was “No HEK293 cytotoxicity”, the “HEK293 cytotoxicity co-cultured with cell free agarose bead (in words)” value (HEK293 cells [5]; human) was “No HEK293 cytotoxicity” and the CC50 (in vitro [1]) was over 250 µM. The CC50 (in vitro [2]; [9]) was over 250 µM, the CC50 (in vitro [2]; [10]) was over 250 µM and the CC50 (in vitro [3]; [11]) was over 250 µM. It also gave a CC50 (in vitro [3]; [12]) of over 250 µM.

With CCOc1ccc(NC(C)=O)cc1 [Phenacetin] the “Metabolite generation in slotted pipette tip compared with control hepatocyte suspension cultures (in words)” value [7] was “compare favorably”.

In the case of O=C(O)Cc1ccccc1Nc1c(Cl)cccc1Cl [Diclofenac], the “Effect of cryopreservation on hepatocyte clearance of probe (in words)” value [8] is reported as “minimal impact”, the “Metabolite Generation (marker metabolite of the probe)” value ([8]; human, 30 min) is reported as 0.98 pmol/min/10^6 hepatocytes and the “Metabolite generation in slotted pipette tip compared with control hepatocyte suspension cultures (in words)” value [7] is reported as “compare favorably”.

In the case of c1ccc2c(c1)cc1ccc3cccc4ccc2c1c34 [Benzo[a]pyrene], the “HEK293 cytotoxicity co-cultured with BioActivator (in words)” value (HEK293 cells [5]; 24 h co-culture with BioActivator, up to 250 μM, compared to cell free agarose bead) is reported as “No HEK293 cytotoxicity”, the “HEK293 cytotoxicity co-cultured with cell free agarose bead (in words)” value (HEK293 cells [5]; 24 h co-culture with cell free agarose bead, up to 250 μM) is reported as “No HEK293 cytotoxicity” and the CC50 (in vitro [1]) is reported as over 250 µM. The CC50 (in vitro [2]; [13]) was over 250 µM, the CC50 (in vitro [2]; [14]) was over 250 µM and the CC50 (in vitro [3]; [15]) was over 250 µM.

In the case of O=C1OC(c2ccc(O)cc2)(c2ccc(O)cc2)c2ccccc21 [Phenolphthalein], the “Effect of cryopreservation on hepatocyte clearance of probe (in words)” value [8] is reported as “minimal impact”, the “Metabolite Generation (marker metabolite of the probe)” value ([8]; 30 min) is reported as 0.12 pmol/min/10^6 hepatocytes and the “Metabolite Generation (marker metabolite of the probe)” value ([8]; 18 h) is reported as 0.02 pmol/min/10^6 hepatocytes. The “Metabolite generation in slotted pipette tip compared with control hepatocyte suspension cultures (in words)” value [7] was “compare favorably”.

With O=[N+]([O-])c1ccc(O)cc1 [4-Nitrophenol, 4-Nitrophenol] the “HEK293 cytotoxicity of compounds pre-conditioned in the BioActivator (in words)” value (HEK293 cells [4]) was “produce cytotoxicity”, the CC50 (in vitro [1]) was over 250 µM and the CC50 (in vitro [2]; [9]) was 101 µM. For the same compound, the CC50 (in vitro [2]; [10]) was over 250 µM, the CC50 (in vitro [3]; [11]) was 199 µM and the CC50 (in vitro [3]; [12]) was over 250 µM.

For Nc1ccc2ccccc2c1 [2-Napthylamine, 2-Napthylamine], the “HEK293 cytotoxicity co-cultured with BioActivator (in words)” value (HEK293 cells [5]) was “No HEK293 cytotoxicity”, the “HEK293 cytotoxicity co-cultured with cell free agarose bead (in words)” value (HEK293 cells [5]) was “No HEK293 cytotoxicity” and the CC50 [6] was over 250 µM.
